Test results: publication PMC8398779, “VEGFR-Mediated Cytotoxic Activity of Pulicaria undulata Isolated Metabolites: A Biological Evaluation and In Silico Study” (Life, 2021)
In brackets after ≈: the same amount, converted by molar mass. Each block holds one compound with its values, some of them ahead of it.

What was measured:
VEGF-B = experiment: Serum VEGF-B by ELISA in EAC-bearing mice; type: in vivo, Swiss albino female mice; settings: day 21, extract 200 mg/kg PO, compounds 50 mg/kg PO, days 7-21, vs control EAC
Procedure: (§1) Swiss albino female mice obtained from the Egyptian Organization for Biological Products and Vaccines (Vacsera, Egypt), and weighing 25–30 g were used. The mice were kept in plastic cages with mesh floor and hardwood bedding at 25 °C temperature under normal light/dark cycle, with water and food provided ad libitum. Mice were left to acclimatize for 1 week before the experiments. They were randomly divided into nine groups (7 mice each). The first group served as the normal group and received saline. EAC cells were inoculated in all other groups. Group 2 was considered the EAC control. Group 3 received (200 mg/kg) of P. undulata extract PO three times weekly. Groups (4–9) received (50 mg/kg) of Xanthoxyline, Oleanolic acid, Stigmasterol, Salvigenin, Rhamnetin and Dihydroquercetin 4′-methyl ether, respectively, PO three times daily. All compounds were dissolved in saline.
(§2) The day of tumor inoculation was considered as day zero (0). Treatment of groups (3–9) started at the 7th day after tumor inoculation, and continued for 2 weeks until day 21. The in vivo study was in accordance with the Guide for the Care and Use of Laboratory animals. The study protocol was approved by the ethical committee of Faculty of Pharmacy, Suez Canal University (code of approval 20201907RA2)
On the 21st day of EAC cells inoculation, blood samples were collected under light ether anesthesia from the orbital sinus (retro-orbital plexus). The blood samples were left to clot for 20 min followed by separation of the serum by centrifugation at 4000 rpm for 15 min. Mice were sacrificed by cervical dislocation and tumor discs were separated, weighed and fixed in 10% neutral buffered formalin for immunohistochemical investigations.
Serum samples were stored at (−20 °C) and used for determination of the level of VEGF-B by ELISA kit (ab213897) (Abcam, Cambridge, UK) according to the manufacturer’s protocol.

[1] = tested on: breast cancer cell line (MCF-7); experiment: Sulphorhodamine B (SRB) antiproliferative assay on MCF-7; settings: Homo sapiens, MCF7, 48 h
Procedure: The potential cytotoxic activities of the P. undulata extract and isolated compounds against breast cancer cell line (MCF-7) were evaluated using a Sulphorhodamine-B (SRB) assay.

normal Vero cell line = experiment: Sulphorhodamine B (SRB) assay on normal Vero cell line; settings: Chlorocebus sabaeus, 48 h
CD34 = experiment: Immunohistochemistry of CD34 expression in EAC tumor tissue; type: in vivo, Swiss albino female mice; settings: day 21, extract 200 mg/kg PO, compounds 50 mg/kg PO, vs control EAC
Procedure: as §1, §2
On the 21st day of EAC cells inoculation, blood samples were collected under light ether anesthesia from the orbital sinus (retro-orbital plexus). The blood samples were left to clot for 20 min followed by separation of the serum by centrifugation at 4000 rpm for 15 min. […]
(§3) For immunohistochemical examination, the tumor discs were fixed in 10% neutral buffered formalin overnight and then embedded in paraffin. When analyzed, all paraffin-embedded tissues were sectioned at 4-μm, deparaffinized in xylene, and hydrated through graded ethyl alcohol series in decreasing concentrations (100%, 90%, 80% and 70%). […] The expression of VEGFR-2 and CD34 were assessed and percentage of stained area was measured.

VEGFR-2 = experiment: Immunohistochemistry of VEGFR-2 expression in EAC tumor tissue; type: in vivo, Swiss albino female mice; settings: day 21, extract 200 mg/kg PO, compounds 50 mg/kg PO, vs control EAC
Procedure: as §1
The day of tumor inoculation was considered as day zero (0). […]
as §3

[2] = tested on: Ehrlich ascites carcinoma (EAC) solid tumors; experiment: Weight of EAC solid tumors in mice; type: in vivo, Swiss albino female mice; settings: day 21, extract 200 mg/kg PO, compounds 50 mg/kg PO, days 7-21, vs control EAC
Procedure: Cells of EAC were purchased from Tumor Biology Department, National Cancer Institute, Cairo University. EAC is a murine spontaneous breast cancer that served as the original tumor from which an ascites variant was obtained. Ascetic fluid was aspired under aseptic conditions from the peritoneal cavity of tumor-bearing mice. The viability and contamination of EAC cells were tested using trypan blue dye exclusion technique. Trypan blue dye stains dead cells only. EAC cells with 90% viability or more were suspended in normal saline (2.5 × 10^6 cells/0.1 mL). The mice were inoculated intradermally with 0.l ml EAC suspension on the lower ventral side after shaving.
as §1, with “Groups (4–9) received (50 mg/kg) of Xanthoxyline, Oleanolic acid, Stigmasterol, Salvigenin, Rhamnetin and Dihydroquercetin 4′-methyl ether, respectively, PO three times daily. All compounds were dissolved in saline.” left out

Structure (SMILES): COc1cc(O)c(C(C)=O)c(OC)c1 [Compound 1, 2-hydroxy-4,6-dimethoxyacetophenone]
- serum VEGF-B levels (VEGF-B): nearly normalize VEGF-B levels
- IC50 [1]: 23.5 ± 0.09 mg/L (≈ 120 µM)
- IC50 (normal Vero cell line): 46 ± 0.28 mg/L (≈ 234 µM)

Structure (SMILES): CC[C@H](/C=C/[C@@H](C)[C@H]1CC[C@H]2[C@@H]3CC=C4C[C@@H](O)CC[C@]4(C)[C@H]3CC[C@]12C)C(C)C [Compound 2, Stigmasterol]
- serum VEGF-B levels (VEGF-B): nearly normalize VEGF-B levels
- IC50 [1]: 47 ± 0.06 mg/L (≈ 114 µM)
- CD34 expression (immunohistochemistry, stained area) (CD34): poor expression of CD34
- IC50 (normal Vero cell line): > 50 mg/L

Structure (SMILES): CC1(C)CC[C@]2(C(=O)O)CC[C@]3(C)C(=CC[C@@H]4[C@@]5(C)CC[C@H](O)C(C)(C)[C@@H]5CC[C@]43C)[C@@H]2C1 [Compound 3, Oleanolic acid]
- IC50 [1]: 30 ± 0.14 mg/L (≈ 65.7 µM)
- VEGFR-2 expression (immunohistochemistry, stained area) (VEGFR-2): significantly (p < 0.05) lowered VEGFR-2 expression
- IC50 (normal Vero cell line): > 50 mg/L

Structure (SMILES): COc1cccc2c1C(=O)c1c(O)c3c(c(O)c1C2=O)C[C@@](O)(C(=O)CO)C[C@@H]3O[C@H]1C[C@H](N)[C@H](O)[C@H](C)O1 [Doxo, doxorubicin, reference compound]
- IC50 (normal Vero cell line): 24.9 ± 0.17 mg/L (≈ 45.8 µM)

Now from value to compound, other results behind:

- IC50 [1]: 18 ± 0.08 mg/L (≈ 54.8 µM)
Structure (SMILES): COc1ccc(-c2cc(=O)c3c(O)c(OC)c(OC)cc3o2)cc1 [Compound 4, 5-hydroxy-4’,6,7-trimethoxyflavone]
- serum VEGF-B levels (VEGF-B): nearly normalize VEGF-B levels
- CD34 expression (immunohistochemistry, stained area) (CD34): poor expression of CD34
- IC50 (normal Vero cell line): > 50 mg/L

- IC50 [1]: 18.5 ± 0.12 mg/L (≈ 58.5 µM)
Structure (SMILES): COc1cc(O)c2c(=O)c(O)c(-c3ccc(O)c(O)c3)oc2c1 [Compound 5, 5,3’,4’-trihydroxy-7 methoxyflavonol]
- serum VEGF-B levels (VEGF-B): nearly normalize VEGF-B levels
- CD34 expression (immunohistochemistry, stained area) (CD34): least expression of CD34
- tumor weight [2]: least tumor weights
- VEGFR-2 expression (immunohistochemistry, stained area) (VEGFR-2): lowest expression
- IC50 (normal Vero cell line): > 50 mg/L

- IC50 [1]: 22.5 ± 0.06 mg/L (≈ 70.7 µM)
Structure (SMILES): COc1ccc(C2Oc3cc(O)cc(O)c3C(=O)C2O)cc1O (stereo not drawn) [Compound 6, dihydroquercetin 4′-methyl ether]
- tumor weight [2]: least tumor weights
- IC50 (normal Vero cell line): > 50 mg/L
